# Entries after “also recorded” stand apart in the source; their conditions may differ. Counter-ions that a name gives are not always drawn.
# Key:
# HCT116 = test: MTT anti-proliferation assay, HCT116; type: cell-based, human; conditions: 72 h, read-out: IC50 ± SD HCT116
# Description: (§1) The anti-proliferation activities of synthesized compounds to colon cancer cell lines were measured by the MTT (3-[4,5-dimethyl-2-thiazolyl]-2,5-diphenyl-2H-tet razolium bromide) assay. First, the cell suspension was prepared by trypsin and the corresponding medium, cells were diluted to 5 × 10^5 cells/mL, and 96-well plates were added 200 μL per well. The plates were maintained at 37°C in a humidified atmosphere containing 5% CO2 overnight. Then compounds at gradient concentrations were added to cells in the logarithmic phase to make the final concentration at 0.5, 1, 2, 4, 8, 16, and 32 μM. The cells were treated with tested compounds for 72 h, and the growth curve assay was tested in 24 h. When the time was up, 20 μL of MTT solution (5 mg/mL in PBS) was added into each well to incubate for 4 h at 37°C. Then the supernatant liquid was removed, 150 μL DMSO was added into every well to dissolve formazan crystals and read the absorbance at 570 nm by Spark microplate spectrophotometer (Tecan, Swiss). The IC50 values were analyzed by IBM SPASS Statistics 25.0 software. The data are all derived from three parallel experiments (n = 3) and expressed as mean ± SD.
# PC-3 = test: MTT anti-proliferation assay, PC-3; type: cell-based; conditions: Homo sapiens, PC-3, 72 h, read-out: IC50 ± SD PC-3
# [1] = Hygroscopicity and stability of the salt forms; type: physicochemical; conditions: solid salt
# RKO cells = test: Plane colony assay, RKO; type: cell-based, human; conditions: RKO, 1, 2 and 4 µM
# Description: (§2) In 6-well plates, HT29 cells and RKO cells (1 × 10^3 cells/well) were inoculated and maintained overnight. Then treated with N53 and N53·HCl at different concentrations for 24 h and with normal culture-medium for 7 days respectively. After that, removed supernatant and fixed by 4% paraformaldehyde for 15 min. Then fixed cells were stained with 1% crystal violet dye for 15 min and rinsed with water. Finally, colonies were counted according to rules that nonoverlapping groups of at least 50 cells. The data are all derived from three parallel experiments (n = 3) and expressed as mean ± SD.
# [2] = Acute toxicity study (OECD guidelines), single dose by gavage; type: in vivo
# Description: Acute toxicity studies were conducted for N53·HCl following OECD guidelines. Sixteen Kunming mice were purchased from SPF (Beijing) Biotechnology Co., Ltd. The mice were randomly divided into two groups (n = 8, 4 female and 4 male mice per group). The control group was treated with saline containing 10% DMSO, 10% Solutol HS -15, and the experimental group was treated with N53·HCl at a dose of 1,000 mg/kg (suspended in saline containing 10% DMSO and 10% Solutol HS -15).
# All treatments were administered with a single dose by gavage. […] It can be seen that N53·HCl is a safe agent with an oral LD50 of more than 1,000 mg/kg in mice.
# HT29 cells = test: Plane colony assay, HT29; type: cell-based, human; conditions: HT29, 1, 2 and 4 µM
# Description: as §2
# HT29 = test: MTT anti-proliferation assay, HT29; type: cell-based, human; conditions: 72 h, read-out: IC50 ± SD HT29
# Description: as §1
structure (smiles),measurement,setting,value
"Cc1c(Cl)cccc1Nc1ccccc1C(=O)Nc1ccc(N2CCN(C)CC2)cc1 [Compound N53, 2-((3-chloro-2-methylphenyl)amino)-N-(4-(4-methylp-iperazin-1-yl)phenyl)benzamide]",IC50,HCT116,3.89 ± 0.41 µM
"Cc1c(Cl)cccc1Nc1ccccc1C(=O)Nc1ccc(N2CCN(C)CC2)cc1 [N53·HCl, 4-(4-(2-((3-chloro-2-methylphenyl)amino)ben-zamido)phenyl)-1-methylpiperazin-1-ium]",IC50,HCT116,10.9 ± 1.3 µM
same,IC50,PC-3,13.7 ± 0.8 µM
same,Hygroscopicity,[1],low in hygroscopicity
same,Stability,[1],relatively stable under various conditions
same,Number of cell clones formed,RKO cells,decreased significantly and dose-dependently
same,"Gross and histological (H&E) examination of major organs (heart, liver, kidney, spleen)","[2]; 1,000 mg/kg single dose by gavage, after 14 days",no obvious toxic effects; also recorded: no significant abnormalities
same,Symptoms and body weight compared to vehicle-treated control,"[2]; 1,000 mg/kg single dose by gavage, monitored 14 days",no significant changes in symptoms and body weight
same,LD50 at 14 days,"[2]; both sexes, Kunming, mouse, in vivo, po",> 1000 mg/kg
same,Number of cell clones formed,HT29 cells,decreased significantly and dose-dependently
same,IC50,HT29,2.95 ± 0.08 µM

# Source: PMC11570809, “Novel N-phenyl-2-(aniline) benzamide hydrochloride salt development for colon cancer therapy” (Frontiers in Pharmacology, 2024)
